Measurements reported in US10758639B2, “Methods for the treatment of peri-implantitis” (POLYPID LTD., priority 2014, dated 2020).
Values joined by “and” are separate entries in the source; they are usually repeats but may differ in a detail not shown here. Equal entries are not always repeated.

System: Staphylococcus aureus biofilm (ATCC 29213)
Experiment: MBEC P&G assay: eradication of an established (preformed) biofilm
Format: cell-based
Details: for Log Reduction (Log R): vs. GC (growth control)
Method: The effectiveness of tri-calcium phosphate granules coated with a matrix composition according to embodiments of the invention in eradicating established biofilm was measured using the MBEC™ (Minimum Biofilm Eradication Concentration) Physiology and Genetics Assay.
MBEC™ Test Method Overview: MBEC™ test method specifies the operational parameters required to grow and treat different bacterial biofilms in a high throughput screening assay. The assay device consists of a plastic lid with ninety-six (96) pegs and a corresponding receiver plate with ninety-six (96) individual wells that have a maximum 200 μL working volume. Biofilm is established on the pegs in a batch culture based model (i.e., no flow of nutrients into or out of an individual well) with gentle mixing. The established biofilm is transferred to a new receiver plate for disinfectant efficacy testing.
Test Organisms: Staphylococcus aureus (an osteomyelitis-related strains); source: ATCC 29213; Dilution/Challenge Media: 1,000×TSB+10% human serum 24 hrs; Growth Media/agar: Tryptic Soy Broth/Tryptic Soy agar for 24 hrs Aerobic cond.
TEST METHOD overview: The experimental process for high-throughput antimicrobial susceptibility testing using the hydroxyapatite coated MBEC™ P&G assay. This standard protocol was broken into a series of small steps, each of which is detailed in the sections below.
1. Culture/Inoculum Preparation:
Using a cryogenic stock (at −70° C.), a first sub-culture of Staphylococcus aureus was streaked out on OSA (organism specific agar). The plates were incubated at appropriate growth conditions for 20±2.0 hours and further stored at 4° C.
A second sub-culture taken from the first sub-culture was streaked out on OSA. The plates were incubated at appropriate growth conditions for 20±2.0 hours. An isolated colony from the second sub-culture was aseptically removed from the OSA plate and inoculated into 50 mL of sterile bacterial liquid growth broth, followed by incubation appropriate growth conditions for 20±2.0 hours (at 150 rpm).
The inoculum was adjusted to an approximate cell density of 10^6 CFU/mL by diluting in OSB according to table 1.
Samples (100 μL) of the diluted organism were used for an inoculum check by serially diluting and spot plating on OSA in triplicate.
Preparation of the Challenge Plate:
150 μL of the remaining diluted organism were placed in each of the corresponding wells of an MBEC™ P&G device except the sterility controls (Table 5). The device was placed on an orbital shaker (110 RPM) in a humidified incubator at 37±1° C.
Antimicrobial Challenge for Preformed Biofilm:
The biofilm formed on the lid of the MBEC device was rinsed by dipping the lid into saline (˜30 seconds) to remove planktonic cells. The lid was then put on top of the challenge plate and incubated on a rotary shaker at 110 rpm at 35±2° C. for 24±2 hours.
After incubation (specified above), planktonic cells were rinsed off the biofilm by dipping the lid into saline (˜20-30 seconds). The lid was then transferred to a neutralizer/recovery plate and put in a sonicator (˜30 minutes) to dislodge surviving biofilm.
Following sonication, 100 μL from each well of the MBEC™ plate, were put into the first 12 empty wells of the first row of a 96 well-micro titer plate and were further diluted by 10 fold down each of the 8 rows (10^0-10^7 dilution). 5 μL from each well were then used for spotting prepared OSA plates. The agar plates were incubated at 37±1° C. and counted after approximately 24-48 hours of incubation. The arithmetic mean of the number of colonies counted on the plates was calculated.
100 μL of the sterile neutralizer was added to each well of the recovery plate to top up the volume back to 200 μL. The refilled plate is incubated at 35±2° C. for 24±2 hours, after which the plates were analyzed using a plate reader.
The log density for one peg was calculated as follows:
LOG10 (CFU/peg)=LOG10 [(XB) (D)] where: X=mean CFU; B=volume plated (0.02 mL) and D=dilution. […]

Q: Which results are given for Gentamicin [D]?
A: Average Log10 CFU/peg recoveries (0.5 μg): 3.48 Log10 CFU/peg; Log10 CFU/peg recoveries, replicates 1-3 (0.5 μg): 3.90 Log10 CFU/peg and 2.90 Log10 CFU/peg and 3.64 Log10 CFU/peg; Average Log10 CFU/peg recoveries (1.0 μg): 3.21 Log10 CFU/peg; Log10 CFU/peg recoveries, replicates 1-3 (1.0 μg): 4.72 Log10 CFU/peg and 2.60 Log10 CFU/peg and 2.30 Log10 CFU/peg; Average Log10 CFU/peg recoveries (2.0 μg): 1.69 Log10 CFU/peg; Log10 CFU/peg recoveries, replicates 1-3 (2.0 μg): 2.30 Log10 CFU/peg and 0.00 Log10 CFU/peg and 2.78 Log10 CFU/peg; Average Log10 CFU/peg recoveries (4.0 μg): 1.31 Log10 CFU/peg; Log10 CFU/peg recoveries, replicates 1-3 (4.0 μg): 1.61 Log10 CFU/peg and 2.30 Log10 CFU/peg and 0.00 Log10 CFU/peg; Average Log10 CFU/peg recoveries (8.0 μg): 0.00 Log10 CFU/peg; Log10 CFU/peg recoveries, replicates 1-3 (8.0 μg): 0.00 Log10 CFU/peg; Average Log10 CFU/peg recoveries (16 μg): 0.00 Log10 CFU/peg; Log10 CFU/peg recoveries, replicates 1-3 (16 μg): 0.00 Log10 CFU/peg; Average Log10 CFU/peg recoveries (32 μg): 0.00 Log10 CFU/peg; Log10 CFU/peg recoveries, replicates 1-3 (32 μg): 0.00 Log10 CFU/peg; Log Reduction (Log R) (0.5 μg): 1.11 LOG10; Log Reduction (Log R) (1.0 μg): 1.38 LOG10; Log Reduction (Log R) (2.0 μg): 2.90 LOG10; Log Reduction (Log R) (4.0 μg): 3.29 LOG10; Log Reduction (Log R) (8.0 μg): 4.59 LOG10; Log Reduction (Log R) (16 μg): 4.59 LOG10; Log Reduction (Log R) (32 μg): 4.59 LOG10
